Data taken from patent US20050261342A1, “Metabolites of (+)-(2S,3S)-3(2-methoxy-5- trifluoromethoxybenzylamino)-2-phenyl-piperidine” (Pfizer Inc., priority 2004, published 2005).

Assay: Profiling and quantitative assessment of radiolabelled metabolites in human subjects after a single oral dose of [14C]-(+)-(2S, 3S)-3-(2-methoxy-5-trifluoromethoxybenzylamino)-2-phenyl-piperidine
Format: in vivo
Conditions: single 30 mg (free base) oral dose of [14C] parent compound, HPLC radioprofiling of pooled serum (1-24 h)
Procedure: Six healthy male human subjects (4 extensive metabolizers (EM) of CYP2D6 and 2 poor metabolizers (PM) of CYP2D6) were administered in a single 30 mg (free base) oral dose of (+)-(2S, 3S)-3-(2-methoxy-5-trifluoromethoxybenzylamino)-2-phenyl-piperidine containing 100 *Ci of [14C]-(+)-(2S, 3S)-3-(2-methoxy-5-trifluoromethoxybenzylamino)-2-phenyl-piperidine (Lot # 49800-59-3, specific activity 1.22 mCi/mmol, radio purity of >99%). Blood samples were collected into red-top tubes (no preservatives or anticoagulant or serum separator) at the following time points: 1, 4, 8, 12, and 24 hours post dose. The blood samples were centrifuged at 4° C. and serum was transferred to clean tubes.
a) Serum samples were pooled by human subject separately (3 ml from each sampling time, total of 15 ml) and aliquots of 1.5 mL from each pool were extracted with 5 mL of acetonitrile. The mixtures were vortex mixed for 5 minutes and centrifuged at 3500 rpm for 5 minutes to remove the precipitated proteins. Supernatants were combined and a small aliquot of supernatant was counted. Approximately 96% (average of all subjects) of the radioactivity was recovered in the supernatant. The supernatants were evaporated under N^2 in a turbovap at room temperature. […]
Measuring the radioactivity in the individual peaks separated on the HPLC column using a -RAM detector allowed the quantification of each metabolite. […]

- accounted for % of the total radioactivity (EM subjects (extensive metabolizers of CYP2D6)): approximately 56%
- accounted for % of the total radioactivity (PM subjects (poor metabolizers of CYP2D6)): ~29%
SMILES: O=C(O)c1cc(OC(F)(F)F)ccc1O [5-trifluoromethoxy salicylic acid, 2-Hydroxy-5-trifluoromethoxy-benzoic acid]
